# Source: US12544372B2, “Methods of treating rheumatoid arthritis, chronic spontaneous urticaria, and systemic lupus erythematosis using an inhibitor of Bruton's tyrosine kinase” (Genentech, Inc., priority 2019, dated 2026)
# Marks after values point to notes of the source that are not given here.
# Tests used:
# Format in all cases: in vivo, human
# [1] = system: patients with moderate to severe active rheumatoid arthritis; experiment: Phase II RA study, Cohort 1 (inadequate response to MTX): clinical efficacy (ACR50, DAS28-3-CRP); details: for DAS 28-3 (CRP) Adjusted Mean / DAS 28-3 (CRP) Difference (d): Week 12; for ACR50 Responders / ACR50 Weighted Difference vs Placebo: Week 12 Day 84; for DAS 28-3 (CRP) Difference (d): versus placebo
# From the text: A Two-Cohort Randomized Phase II, Double-Blind, Parallel Group Study in Patients with Active Rheumatoid Arthritis Evaluating the Efficacy and Safety of Fenebrutinib Compared with Placebo and Adalimumab in Patients with an Inadequate Response to Previous Methotrexate Therapy (Cohort 1) and Compared with Placebo in Patients with an Inadequate Response or Intolerance to Previous TNF Therapy (Cohort 2)
# This study was designed to evaluate the efficacy and safety of fenebrutinib compared with placebo (Cohorts 1 and 2) and compared with adalimumab (ADA) (Cohort 1), each in combination with methotrexate (MTX), in patients with moderate to severe active rheumatoid arthritis (RA). Specific objectives and corresponding endpoints for the study are outlined below.
# The study was a multicenter, Phase II, randomized, double-blind, placebo-controlled, active comparator (Cohort 1 only), parallel-group, dose-ranging study to evaluate the efficacy and safety of fenebrutinib in patients with moderate to severe active RA and an inadequate response to previous MTX therapy (Cohort 1) or MTX and TNF therapy who may have also had exposure to no more than one non-TNF inhibitor biologic (Cohort 2). Moderate to severe active RA was defined by ≥6 tender/painful joints on motion (68 joint count) and ≥6 swollen joints (66 joint count) at both screening and Day 1 (randomization), as well as a high sensitivity C-reactive protein (hsCRP)≥0. 400 mg/dL for Cohort 1 a hsCRP≥0.650 mg/dL for Cohort 2 at screening.
# The study enrolled 578 patients. […] After a screening period of up to 28 days, patients in both cohorts received blinded study drug (oral fenebrutinib or matching placebo) for 12 weeks, after which they had the option to enter an 8 week follow-up period or enroll into an open-label extension (OLE) study. In addition to study drug, patients in Cohort 1 were also treated with subcutaneous (SC) comparatory drug (ADA or placebo).
# Cohort 1 treatment regimens. […]
# Disease Activity Score 28. The DAS 28-4 (CRP) and the DAS 28-4 (ESR) are calculated as follows. Assessments: (i) Tender joint count of 28 joints (TJC28), square-root transformed; (ii) Swollen joint count of 28 joints (SJC28), square-root transformed; (iii) Acute-phase reactant (erythrocyte sedimentation rate [ESR mm/hr] or high sensitivity C-reactive protein [hsCRP mg/L]), log transformed; (iv) Patient's global assessment of disease activity on visual analog scale (0-100 mm).
# The DAS 28 is calculated according to the following formulas: DAS 28(4)−ESR=0.56×SQRT(TJC28)+0.28SQRT(SJC28)+0.70×ln(ESR)+0.014×PtGA DAS 28(4)−CRP=0.56×SQRT(TJC28)+0.28SQRT(SJC28)+0.36×ln(CRP+1)+0.014×PtGA+0.96 • Total score: Range, 0.49-9.07 • Disease remission≤2.6 • Disease activity: Low≤3.2; Moderate d>3.2 and ≤5.1; High>5.1 (PtGA=patient's global assessment of disease activity; ln=natural logarithm; SQRT=square root)
# ACR Assessments. The ACR's definition for calculating improvement in RA (ACR20) is calculated as a 20% improvement in tender and swollen joint counts and a 20% improvement in 3 of the 5 remaining ACR-core set measures: patient and physician global assessments, pain, disability, and an acute-phase reactant. Similarly, ACR50 and ACR70 are calculated with the respective percent improvements. The Sponsor, on the basis of the component parts, will calculate the ACR score.
# The specific components of the ACR Assessments used in this study are as follows: Tender/Painful Joint Count (68), Swollen Joint Count (66), Patient's Assessment of Arthritis Pain, Patient's Global Assessment of Arthritis, Physician's Global Assessment of Arthritis, CRP and HAQ-DI.
# [2] = system: Total IgM; experiment: RA study biomarker: total IgM
# Experimental: […] The biomarkers evaluated in this assessment were chemokine [C-C motif] ligand 4 (CCL4), IL-6, and TNF-like cytokine 1A (TL1A). Total IgM, IgG, rheumatoid factor IgM autoantibody (RF), CCL4, TL1A, IL-6, and anti-CCP autoantibody (ACPA IgG) levels were analyzed with immunoassays. CD19^+ B cells and CD3^+ T cells were measured by flow cytometry. The proportion of patients achieving an ACR50 response at week 12 and the change in DAS28 score by week 12 were assessed relative to seropositivity (RF and/or ACPA positive at baseline) or baseline levels of RF in both cohorts. To select which biomarkers to evaluate in this trial, BTK-dependent myeloid biomarkers were identified using peripheral blood CD14^+ monocytes stimulated with immune-complexes in the presence or absence of a BTK inhibitor. In brief, the expression levels of genes in human monocytes were assayed under conditions of no stimulation; with human serum albumin immune complex stimulation; with stimulation and a low concentration of a BTK inhibitor with similar characteristics to fenebrutinib; or with stimulation and a high concentration of the BTK inhibitor. […] Genes annotated with cytokine activity were selected. The color bar represents normalized gene expression.
# [3] = system: CXCL13; experiment: RA study biomarker: CXCL13
# [4] = system: CD19+ B cells; experiment: SLE study biomarker: CD19+ B cells
# Experimental: (§1) The following biomarkers were explored according to the biomarker objectives provided above in the Study Objectives. In Table 13, biomarkers are measured at baseline and subsequent timepoints during and after treatment. One set of biomarkers evaluated is the plasmablast signature. Plasmablasts are rapidly dividing, short-lived antibody secreting cells. While they represent a small proportion of B cells in the blood, they are responsible for a majority of antibody transcripts found in whole blood mRNA. The plasmablast signature comprises the biomarkers IgJ, Mzbl, and Txndc5. The gene expression of IgJ, Mzbl, and Txndc5 may be measured, for example, a polypeptide expression by evaluating the level of mRNA for said gene in a patient's blood relative to a reference level.
# [5] = system: C3; experiment: SLE study biomarker: C3
# Experimental: as §1
compound,measurement,setting,value
"C[C@H]1CN(C2COC2)CCN1c1ccc(Nc2cc(-c3ccnc(N4CCn5c(cc6c5CC(C)(C)C6)C4=O)c3CO)cn(C)c2=O)nc1 [fenebrutinib, (S)-2-(3′-(hydroxymethyl)-1-methyl-5-((5-(2-methyl-4-(oxetan-3-yl)piperazin-1-yl)pyridin-2-yl)amino)-6-oxo-1,6-dihydro-[3,4′-bipyridin]-2′-yl)-7,7-dimethyl-2,3,4,6,7,8-hexahydro-1H-cyclopenta[4,5]pyrrolo[1,2-a]pyrazin-1-one]",DAS 28-3 (CRP) Adjusted Mean,"[1]; Cohort 1, 50 mg QD",−1.54
same,ACR50 Responders,"[1]; Cohort 1, 50 mg QD",7 (17.5%)
same,ACR50 Weighted Difference vs Placebo,"[1]; Cohort 1, 50 mg QD",8.00
same,DAS 28-3 (CRP) Adjusted Mean,"[1]; Cohort 1, 150 mg QD",−1.74
same,ACR50 Responders,"[1]; Cohort 1, 150 mg QD",30 (27.5%)
same,ACR50 Weighted Difference vs Placebo,"[1]; Cohort 1, 150 mg QD",12.93
same,DAS 28-3 (CRP) Difference (d),"[1]; Cohort 1, 50 mg QD",−0.36
same,DAS 28-3 (CRP) Difference (d),"[1]; Cohort 1, 150 mg QD",−0.57
same,Total IgM Reduction as % of Baseline,"[2]; Cohort 1, 50 mg QD, Week 4",94%
same,Total IgM Reduction as % of Baseline,"[2]; Cohort 1, 50 mg QD, Week 8",91%*
same,Total IgM Reduction as % of Baseline,"[2]; Cohort 1, 50 mg QD, Week 12",88%*
same,Total IgM Reduction as % of Baseline,"[2]; Cohort 1, 150 mg QD, Week 4",91%*
same,Total IgM Reduction as % of Baseline,"[2]; Cohort 1, 150 mg QD, Week 8",88%*
same,Total IgM Reduction as % of Baseline,"[2]; Cohort 1, 150 mg QD, Week 12",86%*
same,Total IgM Reduction as % of Baseline,"[2]; Cohort 1, 200 mg BID, Week 4",92%*
same,Total IgM Reduction as % of Baseline,"[2]; Cohort 1, 200 mg BID, Week 8",86%*
same,Total IgM Reduction as % of Baseline,"[2]; Cohort 1, 200 mg BID, Week 12",84%*
same,Total IgM absolute reduction relative to placebo,"[2]; cohort 1, 200 mg twice daily, by week 12",-22 mg/dL
same,Total IgM reduction relative to placebo,"[2]; cohort 2, 200 mg twice daily, by week 12",-17 mg/dL
same,CXCL13 Reduction as % of Baseline,"[3]; Cohort 1, 50 mg QD, Week 4",63%*
same,CXCL13 Reduction as % of Baseline,"[3]; Cohort 1, 50 mg QD, Week 12",62%*
same,CXCL13 Reduction as % of Baseline,"[3]; Cohort 1, 150 mg QD, Week 4",65%*
same,CXCL13 Reduction as % of Baseline,"[3]; Cohort 1, 150 mg QD, Week 12",58%*
same,CXCL13 Reduction as % of Baseline,"[3]; Cohort 1, 200 mg BID, Week 4",67%*
same,CXCL13 Reduction as % of Baseline,"[3]; Cohort 1, 200 mg BID, Week 12",62%*
same,"CD19+ B cells, Median Change from Baseline at Week 48",[4]; 150 mg QD,−57.0* cells/μl
same,"CD19+ B cells, Median Change from Baseline at Week 48",[4]; 200 mg BID,−57.5* cells/μl
same,"C3, Median Change from Baseline at Week 48",[5]; 150 mg QD,+0.01 g/L
same,"C3, Median Change from Baseline at Week 48",[5]; 200 mg BID,-0.01 g/L
